Experimental data taken from paper PMC8876959, “Comparative Evaluation of Radiochemical and Biological Properties of ^131I- and [^99mTc]Tc(CO)3-Labeled RGD Analogues Planned to Interact with the αvβ3 Integrin Expressed in Glioblastoma” (Pharmaceuticals, 2022).
“And” between values parts separate entries of the source, which are not always exact repeats. Identical values can stand only once.

Assays:
[1] = system: normal rat brain homogenates (control); experiment: Binding and internalization in brain homogenate of normal rats; conditions: 37 °C, n = 7
Description: An aliquot containing 2 × 10^6 C6 cells in supplemented DMEM-F12 culture medium (450 µL) was added to a vial and incubated with 10 nmol of the radiolabeled peptide at 37 °C with gentle agitation. The studies were evaluated at 1, 4 and 24 h (n = 7 for each time point). Then, the vials were centrifuged (604× g for 5 min). The radioactivities of the pellet and supernatant were separately evaluated using an automatic Wizard 3 2480 gamma counter (Perkin Elmer; Norwalk, CT, USA). The percentage of the bound fraction was calculated by Equation (1). (1) % bound fraction=Pellet radioactivity (cpm)/Pellet radioactivity (cpm)+supernatant radioactivity (cpm)×100
In the sequence, a second radioactivity determination was performed. For that, pellets were resuspended using 0.5 mL of acid buffer (0.2 M acetic acid in 0.5 M NaCl solution; pH 2.8) and maintained at room temperature for 5 min to remove the radiolabeled molecule attached to the cell membrane surface. Then, the vials were centrifuged (1677× g for 5 min). The pellet and supernatant were separated and their radioactivities were measured using the above-mentioned automatic gamma counter. The percentage of the internalized fraction of radiopeptides was estimated based on the ratio between the activity contained in the precipitate and the supernatant and calculated by Equation (2):(2) % internalized fraction=Pellet radioactivity (cpm)/Pellet radioactivity (cpm)+supernatant radioactivity (cpm)×100
Brain homogenates were prepared at the concentration of ~10 mg of wet tissue in 1000 µL of PBS (pH 7.4). Normal brain tissue (control) and tumor-bearing brain tissue (model) were used. A 25 µL aliquot (1.2 MBq/nmol) of each radiopeptide was added to 200 µL of freshly prepared homogenates (n = 7). The homogenates containing the radiolabeled peptides were incubated at 37 °C for 1, 4 and 24 h. Binding and internalization fractions were determined as described in Section 3.11.

[2] = Ex vivo biodistribution in normal (control) rats; parameters: species or system rat; conditions: gamma counter, mean ± SEM, n = 3
Description: (§1) Adult male Sprague Dawley rats (280–320 g) were maintained under controlled environmental conditions (12 h light-dark cycle; constant temperature 21 ± 2 °C), with free access to water and food. Tumorigenic glioblastoma cells were implanted in the right frontal cortex, following specific coordinates (referred to bregma): anteroposterior = 1.0 mm; lateral = 3.0 mm; depth = 5.0 mm. An aliquot of culture medium (10 µL) containing 1 × 10^6 C6 cells in suspension was injected slowly (1 µL/min) using a Hamilton syringe positioned on a stereotaxic surgery frame. In the control group, only the culture medium, without cells, was injected. An interval of 20 days after cell inoculation was allowed for tumor development.
(§2) The ex vivo biodistribution of each radiolabeled peptide (4 MBq; 0.2 mL) was evaluated at 15, 60, and 240 min after IV injection in control and tumor-bearing animals (n = 3 per group, per time point). The molar activities in this study were 0.68 and 16.2 MBq/nmol for the iodine and tricarbonyl-labeled peptides, respectively. Animals were deeply anesthetized and sacrificed at the corresponding biodistribution time point. Brain, spleen, heart, stomach, liver, lungs, kidneys, and blood were collected and weighed. Then, their radioactivities were determined using the above-mentioned automatic gamma counter. The radioactivity of each organ/tissue was evaluated as the percentage of injected dose per gram of organ/tissue (% ID/g), using the same injected dose activity as a standard.

serum proteins = experiment: Serum protein binding (TCA precipitation); format: in vitro ADME; conditions: 25 µL radiopeptide in 175 µL serum, 37 °C, 1 h; 10% TCA precipitation; gamma counter; n = 6
Description: Radiopeptides (25 μL) were added to 175 µL of serum (n = 6) and incubated at 37 °C for 1 h. After, 1 mL of 10% trichloroacetic acid (TCA) was added for the precipitation of proteins. The mixture was vortexed for 1 min and centrifuged at 1677× g for 10 min. This process was repeated three times. Both the supernatant’s and pellet’s radioactivity were measured in an automatic Wizard 3 2480 gamma counter (Perkin Elmer; Norwalk, CT, USA).

[3] = Ex vivo biodistribution in glioblastoma allograft tumor-bearing (model) rats; parameters: species or system rat; conditions: for Ex vivo biodistribution, Blood / Ex vivo biodistribution, Brain / Ex vivo biodistribution, Heart / Ex vivo biodistribution, Kidneys / Ex vivo biodistribution, Liver / Ex vivo biodistribution, Lungs / Ex vivo biodistribution, Spleen / Ex vivo biodistribution, Stomach: model rats, gamma counter, mean ± SEM, n = 3
Description: as §1, §2

[4] = normal rat brain homogenate, 24 h

Substance: [^99mTc]Tc(CO)3-GRGDHV
- Bound fraction ([1]; normal rat brain homogenate (~10 mg/1000 µL PBS pH 7.4), 1 h): ~ 50%
- Internalized fraction ([1]; normal rat brain homogenate, 1 h): ~ 63%
- Bound fraction [1, 4]: ~ 65%
- Internalized fraction [1, 4]: ~ 87%
- Ex vivo biodistribution, Blood ([2]; 15 min after IV injection): 11.30 ± 0.84 %ID/g
- Ex vivo biodistribution, Blood ([2]; 60 min after IV injection): 9.78 ± 0.52 %ID/g
- Ex vivo biodistribution, Blood ([2]; 240 min after IV injection): 11.12 ± 1.27 %ID/g
- Ex vivo biodistribution, Brain ([2]; 15 min after IV injection): 0.32 ± 0.01 %ID/g
- Ex vivo biodistribution, Brain ([2]; 60 min after IV injection): 0.28 ± 0.03 %ID/g
- Ex vivo biodistribution, Brain ([2]; 240 min after IV injection): 0.60 ± 0.04 %ID/g
- Ex vivo biodistribution, Heart ([2]; 15 min after IV injection): 5.14 ± 0.12 %ID/g
- Ex vivo biodistribution, Heart ([2]; 60 min after IV injection): 4.41 ± 0.23 %ID/g
- Ex vivo biodistribution, Heart ([2]; 240 min after IV injection): 4.84 ± 0.37 %ID/g
- Ex vivo biodistribution, Kidneys ([2]; 15 min after IV injection): 62.73 ± 2.17 %ID/g
- Ex vivo biodistribution, Kidneys ([2]; 60 min after IV injection): 51.04 ± 1.49 %ID/g
- Ex vivo biodistribution, Kidneys ([2]; 240 min after IV injection): 40.17 ± 0.90 %ID/g
- Ex vivo biodistribution, Liver ([2]; 15 min after IV injection): 6.06 ± 0.79 %ID/g
- Ex vivo biodistribution, Liver ([2]; 60 min after IV injection): 9.55 ± 1.34 %ID/g
- Ex vivo biodistribution, Liver ([2]; 240 min after IV injection): 12.26 ± 1.34 %ID/g
- Ex vivo biodistribution, Lungs ([2]; 15 min after IV injection): 7.76 ± 0.75 %ID/g
- Ex vivo biodistribution, Lungs ([2]; 60 min after IV injection): 9.25 ± 1.65 %ID/g
- Ex vivo biodistribution, Lungs ([2]; 240 min after IV injection): 8.59 ± 0.64 %ID/g
- Ex vivo biodistribution, Spleen ([2]; 15 min after IV injection): 3.41 ± 0.41 %ID/g
- Ex vivo biodistribution, Spleen ([2]; 60 min after IV injection): 3.69 ± 0.60 %ID/g
- Ex vivo biodistribution, Spleen ([2]; 240 min after IV injection): 4.93 ± 0.45 %ID/g
- Ex vivo biodistribution, Stomach ([2]; 15 min after IV injection): 3.09 ± 0.77 %ID/g
- Ex vivo biodistribution, Stomach ([2]; 60 min after IV injection): 10.27 ± 0.59 %ID/g
- Ex vivo biodistribution, Stomach ([2]; 240 min after IV injection): 10.78 ± 3.11 %ID/g
- Serum protein binding (SPB) (serum proteins): ~50% and 49.97 ± 0.01%
- Ex vivo biodistribution, Blood ([3]; 15 min after IV injection): 10.28 ± 2.93 %ID/g
- Ex vivo biodistribution, Blood ([3]; 60 min after IV injection): 8.91 ± 0.94 %ID/g
- Ex vivo biodistribution, Blood ([3]; 240 min after IV injection): 10.32 ± 1.51 %ID/g
- Ex vivo biodistribution, Brain ([3]; 15 min after IV injection): 0.71 ± 0.01 %ID/g
- Ex vivo biodistribution, Brain ([3]; 60 min after IV injection): 0.81 ± 0.01 %ID/g
- Ex vivo biodistribution, Brain ([3]; 240 min after IV injection): 1.57 ± 0.11 %ID/g
- Ex vivo biodistribution, Heart ([3]; 15 min after IV injection): 5.40 ± 0.48 %ID/g
- Ex vivo biodistribution, Heart ([3]; 60 min after IV injection): 5.14 ± 0.73 %ID/g
- Ex vivo biodistribution, Heart ([3]; 240 min after IV injection): 4.80 ± 0.11 %ID/g
- In vivo radiochemical stability ([3]; judged from ex vivo biodistribution (stomach uptake) in rats): better in vivo radiochemical stability
- Ex vivo biodistribution, Kidneys ([3]; 15 min after IV injection): 58.33 ± 1.43 %ID/g
- Ex vivo biodistribution, Kidneys ([3]; 60 min after IV injection): 58.99 ± 1.13 %ID/g
- Ex vivo biodistribution, Kidneys ([3]; 240 min after IV injection): 40.44 ± 2.99 %ID/g
- Ex vivo biodistribution, Liver ([3]; 15 min after IV injection): 7.04 ± 0.68 %ID/g
- Ex vivo biodistribution, Liver ([3]; 60 min after IV injection): 8.29 ± 0.43 %ID/g
- Ex vivo biodistribution, Liver ([3]; 240 min after IV injection): 11.62 ± 1.01 %ID/g
- Ex vivo biodistribution, Lungs ([3]; 15 min after IV injection): 10.03 ± 2.56 %ID/g
- Ex vivo biodistribution, Lungs ([3]; 60 min after IV injection): 7.83 ± 0.20 %ID/g
- Ex vivo biodistribution, Lungs ([3]; 240 min after IV injection): 9.38 ± 1.89 %ID/g
- Ex vivo biodistribution, Spleen ([3]; 15 min after IV injection): 3.74 ± 0.33 %ID/g
- Ex vivo biodistribution, Spleen ([3]; 60 min after IV injection): 2.88 ± 0.32 %ID/g
- Ex vivo biodistribution, Spleen ([3]; 240 min after IV injection): 4.12 ± 0.79 %ID/g
- Ex vivo biodistribution, Stomach ([3]; 15 min after IV injection): 4.44 ± 1.25 %ID/g
- Ex vivo biodistribution, Stomach ([3]; 60 min after IV injection): 7.28 ± 0.88 %ID/g
- Ex vivo biodistribution, Stomach ([3]; 240 min after IV injection): 14.60 ± 2.07 %ID/g
